Experimental data: patent US10775388B2, “Methods of using antibodies to determine periostin levels in a sample” (MEDIMMUNE, LLC, priority 2014, dated 2020)
“And” between values parts separate entries of the source, which are not always exact repeats. Equal entries are not always repeated.

Key:
[1] = system: adults with uncontrolled, severe asthma; assay: Phase 2b study CD-RI-CAT-354-1049 of SC tralokinumab, subgroup analysis by baseline serum periostin; type: in vivo, human; conditions: for Asthma exacerbation rate reduction: 300 mg Q2W vs placebo
Protocol: A 5-week screening/run-in period (Week −5 to −1 [Day −1]) preceded randomisation. Starting at Week −4 (Day −28), patients received a fixed-dose combination product of fluticasone/salmeterol, either as an MDI (230 μg/21 μg) at a dose of 2 inhalations twice per day or as a DPI (500 μg/50 μg) at a dose of one inhalation twice per day. If the patient was also taking additional asthma controller medications (including leukotriene modifiers, theophylline, cromones, a secondary ICS, or oral prednisolone 20 mg/day or equivalent OCS), then these medications were to be continued at a stable dose during the screening/run-in and treatment period.
Patients were randomised in a 1:1 ratio to one of 2 cohorts (Cohort 1 or Cohort 2).

[2] = system: EPIAIRWAY™ tissue (normal and asthmatic lung epithelium); assay: Periostin levels in IL-13 stimulated […] tissue models (sandwich ELISA); type: cell-based, human; conditions: stimulated with 50 ng/mL IL-13 for 48 hours
Protocol: Biotin/streptavidin-HRP-based sandwich ELISA assays were performed as follows. Specific details such as anti-periostin capture antibodies, samples to be tested, and anti-periostin detection antibodies are noted for specific experiments in the various examples Variations to standard ELISA protocols are well known to those of ordinary skill in the art, and can be used according to this disclosure.
High binding ELISA plates were coated with an anti-periostin capture mAb, e.g., 4B4.B11 (2 μg/mL in PBS; 100 μL/well), and were incubated overnight at 4° C. The plates were washed three times with 200 μL/well wash buffer (PBS/0.1% TWEEN-20®). Following washing, 200 μL/well block buffer (e.g., PBS/50× dilution of reagent diluent concentrate (available from R & D Systems)/0.05% TWEEN-20® or PBS/3% nonfat dry milk/0.1% TWEEN-20®) was added to each well, and the plates were incubated for one hour at room temperature. The plates were then washed three times as noted above.
For the standard curve, periostin standards (e.g., standards available from R & D Systems Cat #3548-F2) were serially diluted in block buffer, e.g., 2-fold dilutions from 50 ng/mL to 0.78 ng/mL. […] Finally the plates were read on a spectrophotometer at λ=450 nm. […]

[3] = system: patients with uncontrolled asthma; conditions: above-median vs below-median baseline serum periostin; cited from earlier work
[4] = post hoc, 300 mg Q2W, FEV1 reversibility ≥12% and serum periostin < median
[5] = post hoc, 300 mg Q2W, FEV1 reversibility ≥12% and serum periostin ≥ median
[6] = post hoc, reversible patients regardless of serum periostin level

## tralokinumab: anti-IL-13 monoclonal antibody (SEQ ID NOs 8-9)
[1]; 300 mg Q2/4W, through to Week 53, periostin < median
  percent change from baseline in pre-bronchodilator FEV1 over time: No significant increases
[1]; Week 53, ITT (regardless of serum periostin level)
  Asthma exacerbation rate reduction: 7%
[1]; Week 53, baseline serum Periostin ≥ Median
  Asthma exacerbation rate reduction: 25%
[1]; 300 mg Q2W, ITT
  Change from baseline in ACQ-6: −0.18
  Change from baseline in AQLQ: 0.21
[1]; 300 mg Q2W, Periostin < Median
  Change from baseline in ACQ-6: −0.02
  Change from baseline in AQLQ: 0.21
[1]; 300 mg Q2W, Periostin ≥ Median
  Change from baseline in ACQ-6: −0.23
  Change from baseline in AQLQ: 0.22
[1]; 300 mg Q2W, Week 53, ITT (regardless of serum periostin level)
  Percent change from baseline in FEV1: 7.1%
[1]; 300 mg Q2W, Week 53, Periostin < Median
  Percent change from baseline in FEV1: 7.06%
[1]; 300 mg Q2W, Week 53, Periostin ≥ Median
  Percent change from baseline in FEV1: 6.75% and 6.8%
[1]; 300 mg Q2W, through to Week 53, periostin < median
  percent change from baseline in pre-bronchodilator FEV1 over time: No significant increases
[1]; 300 mg Q2W, through to Week 53, periostin >= median
  percent change from baseline in pre-bronchodilator FEV1 over time: Relative increases
[1]; baseline serum periostin above the median compared to below the median
  reduction in serum periostin levels: Greater reduction
[1]; [4]
  increase in FEV1: 7.62%
  reduction in AER: 4%
[1]; [5]
  percentage increase from baseline in pre-bronchodilator FEV1 compared to placebo: 13.85%
  reduction in AER: 54%
[1]; [6]
  AER reduction: 34%
  increase in FEV1: 11.07%
[1]; soon after the first dose and for the duration of the study
  serum periostin levels: substantially reduced

## IL-13: 114 amino acid cytokine used to stimulate periostin expression
[2]
  periostin levels: increase

## lebrikizumab: anti-human-IL-13 antibody (SEQ ID NOs 6-7), Roche/Genentech
[3]
  AER reduction: greater AER reduction
  increases in FEV1: larger increases
